The text below walks through data of patent US12599672B2, “KRAS proteolysis targeting chimeras” (PAQ Therapeutics Inc., priority 2023, dated 2026).

Holding throughout (assay type): cell-based
One assay concerns the target T1, KRAS G12V (Homo sapiens, UniProt P01116, G12V).
T1 construct: SW620-KRAS (G12V)-HiBit-KI cell (Pharmaron); host or cells: SW620-KRAS (G12V)-HiBit-KI cells (HiBiT knock-in at the endogenous KRAS locus)
The experiment in a line: KRAS G12V HiBit assay. The settings on record: SW620-KRAS (G12V)-HiBit-KI cells, compound treatment for 24 hours, class symbols. In a few lines:
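Luminescence from lytic Nano-Glo HiBiT detection with LgBiT read KRAS G12V levels after 24 h compound exposure. Dilutions were 10-point, 3-fold, from a 0.3 mM DMSO stock. Degradation activity was normalised to cells given 0.1% DMSO alone.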
Background: With HiBiT, luminescence reflects the tagged protein that the partner subunit can reach.

Another assay deals with T2, KRAS G12D (Homo sapiens, UniProt P01116, G12D).
T2 construct: AsPc-1-KRAS (G12D)-HiBit-KI cell (Pharmaron); host or cells: AsPc-1-KRAS (G12D)-HiBit-KI cells (HiBiT knock-in at the endogenous KRAS locus)
Kind of assay: KRAS G12D HiBit assay. The settings on record: AsPc-1-KRAS (G12D)-HiBit-KI cell, compound treatment for 24 hours; for DC50: absolute DC50. Summed up: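 HiBiT luminescence, detected by adding lytic buffer, substrate and LgBiT protein, served as the KRAS G12D read-out. Compounds, serially diluted 3-fold over 10 points from 0.3 mM DMSO stock, were on cells for 24 h; percent inhibition normalized to cells given 0.1% DMSO only.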

A further assay addresses T3, KRAS (Homo sapiens, UniProt P01116).
T3 construct: endogenous in cells; host or cells: KE39 (KRAS amplified) cells
Kind of assay: KRASamp MSD assay. The settings on record: KE39 (KRAS amplified) cells, treated with test compounds for 24 hr, MSD readout of KRAS degradation. In a few lines: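 Degradation DC50 derived by curve fitting, with KRAS levels quantified by MSD electrochemiluminescence (capture/detection antibodies, recombinant WT KRAS standard). Lysates prepared from KE39 cells (KRAS amplified) exposed to test compounds for 24 hr.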

Where [1] appears, read: numeric bounds given in place of class symbols.

T3 sequence (P01116 1-188 isoform P01116-2): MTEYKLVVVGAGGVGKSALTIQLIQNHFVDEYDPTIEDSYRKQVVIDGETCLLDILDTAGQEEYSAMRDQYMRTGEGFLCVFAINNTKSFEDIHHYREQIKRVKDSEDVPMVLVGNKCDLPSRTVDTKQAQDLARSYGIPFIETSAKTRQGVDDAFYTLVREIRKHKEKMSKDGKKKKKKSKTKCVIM
T1 sequence (P01116 1-188 isoform P01116-2 G12V): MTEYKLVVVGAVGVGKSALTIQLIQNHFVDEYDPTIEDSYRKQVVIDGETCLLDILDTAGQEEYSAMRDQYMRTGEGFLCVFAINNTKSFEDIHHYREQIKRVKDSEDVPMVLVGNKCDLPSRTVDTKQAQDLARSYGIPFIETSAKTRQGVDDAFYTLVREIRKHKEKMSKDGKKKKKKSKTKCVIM
T2 sequence (P01116 1-188 isoform P01116-2 G12D): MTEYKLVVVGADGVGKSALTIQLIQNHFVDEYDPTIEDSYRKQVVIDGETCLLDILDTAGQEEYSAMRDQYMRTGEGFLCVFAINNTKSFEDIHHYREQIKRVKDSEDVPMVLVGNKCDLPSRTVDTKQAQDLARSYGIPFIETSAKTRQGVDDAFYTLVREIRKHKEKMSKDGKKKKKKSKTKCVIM

As for `C#Cc1c(F)ccc2cc(O)cc(-c3ncc4c(N5CCC[C@@](C)(O)C5)nc(OC[C@@]56CCCN5[C@H](COC(=O)N5CCC7(CC5)CC(N5CCC(c8ccc9c(c8)n(C)c(=O)n9C8CCC(=O)NC8=O)CC5)C7)CC6)nc4c3F)c12` (stereo partly drawn) [Compound 158, ((3S,7aS)-7a-(((7-(8-Ethynyl-7-fluoro-3-hydroxynaphthalen-1-yl)-8-fluoro-4-((R)-3-hydroxy-3-methylpiperidin-1-yl)pyrido[4,3-d]pyrimidin-2-yl)oxy)methyl)hexahydro-1H-pyrrolizin-3-yl)methyl-2-(4-(1-(2,6-dioxopiperidin-3-yl)-3-methyl-2-oxo-2,3-dihydro-1H-benzo[d]imidazol-5-yl)piperidin-1-yl)-7-azaspiro[3.5]nonane-7-carboxylate], the DC50 at KRAS G12V was less than 10 nM; on KRAS G12D (class symbols), less than 100 nM; at KRAS it was less than 1 nM.

As for `C#Cc1c(F)ccc2cc(O)cc(-c3ncc4c(N5CCCC(F)(F)C5)nc(OC[C@]56CCCN5[C@H](COC(=O)N5CCC(CN7CCC(c8ccc9c(c8)n(C)c(=O)n9C8CCC(=O)NC8=O)CC7)CC5)CC6)nc4c3F)c12` (stereo partly drawn) [Compound 431, ((3S,7aR)-7a-(((4-(3,3-difluoropiperidin-1-yl)-7-(8-ethynyl-7-fluoro-3-hydroxynaphthalen-1-yl)-8-fluoropyrido[4,3-d]pyrimidin-2-yl)oxy)methyl)hexahydro-1H-pyrrolizin-3-yl)methyl 4-((4-(1-(2,6-dioxopiperidin-3-yl)-3-methyl-2-oxo-2,3-dihydro-1H-benzo[d]imidazol-5-yl)piperidin-1-yl)methyl)piperidine-1-carboxylate], the DC50 on KRAS G12V is less than 10 nM; at KRAS G12D (setting [1]) it was more than 100 nM; on KRAS, 1 to 10 nM.

Regarding `CCc1c(F)ccc2cc(O)cc(-c3ncc4c(N5CCC[C@H](N)C5)nc(OC[C@@]56CCCN5[C@H](COC(=O)N5CCC7(CC5)CC(N5CCC(c8ccc9c(c8)n(C)c(=O)n9C8CCC(=O)NC8=O)CC5)C7)CC6)nc4c3F)c12` (stereo partly drawn) [Compound 477, ((3S,7aS)-7a-(((4-((S)-3-aminopiperidin-1-yl)-7-(8-ethyl-7-fluoro-3-hydroxynaphthalen-1-yl)-8-fluoropyrido[4,3-d]pyrimidin-2-yl)oxy)methyl)hexahydro-1H-pyrrolizin-3-yl)methyl 2-(4-(1-(2,6-dioxopiperidin-3-yl)-3-methyl-2-oxo-2,3-dihydro-1H-benzo[d]imidazol-5-yl)piperidin-1-yl)-7-azaspiro[3.5]nonane-7-carboxylate], the DC50 at KRAS G12V is more than 100 nM; on KRAS G12D (setting [1]) it was more than 100 nM; at KRAS it was not below 10 nM.

With `C#Cc1c(F)ccc2cc(O)cc(-c3ncc4c(N5CCC[C@@](C)(O)C5)nc(OCC5(CN6CCC7(CC6)CC(N6CCC(c8cccc9c(C%10CCC(=O)NC%10=O)nn(C)c89)CC6)C7)CC5)nc4c3F)c12` (stereo partly shown) [Compound 69], the DC50 on KRAS G12V is less than 10 nM; at KRAS G12D (class symbols) it was less than 100 nM; on KRAS, less than 1 nM.

With `C#Cc1c(F)ccc2cc(O)cc(-c3ncc4c(N5CCC[C@@](C)(O)C5)nc(OCC5(CN6CCC(N7CCC(c8ccc9c(C%10CCC(=O)NC%10=O)nn(C)c9c8)CC7)CC6)CC5)nc4c3F)c12` (stereo partly shown) [Compound 58], the DC50 on KRAS G12V was less than 10 nM; at KRAS G12D (class symbols), less than 100 nM; on KRAS, not below 10 nM.

On to `C#Cc1c(F)ccc2cc(O)cc(-c3ncc4c(N5CCC[C@@](C)(O)C5)nc(OC[C@@]56CCCN5[C@H](COC(=O)N5CCC7(CCC(CN8CCC(c9ccc%10c(c9)n(C)c(=O)n%10C9CCC(=O)NC9=O)CC8)CC7)C5)CC6)nc4c3F)c12` (stereo partly shown) [Compound 454], for which the DC50 on KRAS G12V was less than 10 nM; at KRAS G12D (class symbols), less than 100 nM; on KRAS, less than 1 nM.

In the case of `C#Cc1c(F)ccc2cc(O)cc(-c3ncc4c(N5CCOCC5)nc(OC[C@@]56CCCN5[C@H](COC(=O)N5CCC(CN7CCC(c8ccc9c(c8)n(C)c(=O)n9C8CCC(=O)NC8=O)CC7)CC5)CC6)nc4c3F)c12` (stereo partly drawn) [Compound 125, ((3S,7aS)-7A-(((7-(8-Ethynyl-7-fluoro-3-hydroxynaphthalen-1-yl)-8-fluoro-4-morpholinopyrido[4,3-d]pyrimidin-2-yl)oxy)methyl)hexahydro-1H-pyrrolizin-3-yl)methyl 4-((4-(1-(2,6-dioxopiperidin-3-yl)-3-methyl-2-oxo-2,3-dihydro-1H-benzo[d]imidazol-5-yl)piperidin-1-yl)methyl) piperidine-1-carboxylate], the DC50 on KRAS G12V is less than 10 nM; on KRAS G12D (class symbols), less than 100 nM; at KRAS, less than 1 nM. The same compound showed a Dmax on KRAS G12D (class symbols) of more than 50%.

Turning to `CCc1c(F)ccc2cc(O)cc(-c3ncc4c(N5CCC[C@@](C)(O)C5)nc(OC[C@@]56CCCN5[C@H](COC(=O)Nc5ccc(CN7CCC(c8ccc9c(c8)n(C)c(=O)n9C8CCC(=O)NC8=O)CC7)cc5)CC6)nc4c3F)c12` (stereo partly drawn) [Compound 450, ((3S,7aS)-7a-(((7-(8-ethyl-7-fluoro-3-hydroxynaphthalen-1-yl)-8-fluoro-4-((R)-3-hydroxy-3-methylpiperidin-1-yl)pyrido[4,3-d]pyrimidin-2-yl)oxy)methyl)hexahydro-1H-pyrrolizin-3-yl)methyl (4-((4-(1-(2,6-dioxopiperidin-3-yl)-3-methyl-2-oxo-2,3-dihydro-1H-benzo[d]imidazol-5-yl)piperidin-1-yl)methyl)phenyl)carbamate], the results for the DC50 at KRAS G12V, on KRAS G12D (class symbols) and on KRAS were less than 10 nM, less than 100 nM and less than 1 nM, respectively.

As for `CCc1c(F)ccc2cc(O)cc(-c3ncc4c(N5CC[C@@H](O)C5)nc(OC[C@@]56CCCN5[C@H](COC(=O)N5CCC7(CC5)CC(N5CCC(c8ccc9c(c8)n(C)c(=O)n9C8CCC(=O)NC8=O)CC5)C7)CC6)nc4c3F)c12` (stereo partly drawn) [Compound 350, ((3S,7aS)-7a-(((7-(8-ethyl-7-fluoro-3-hydroxynaphthalen-1-yl)-8-fluoro-4-((R)-3-hydroxypyrrolidin-1-yl)pyrido[4,3-d]pyrimidin-2-yl)oxy)methyl)hexahydro-1H-pyrrolizin-3-yl)methyl 2-(4-(1-(2,6-dioxopiperidin-3-yl)-3-methyl-2-oxo-2,3-dihydro-1H-benzo[d]imidazol-5-yl)piperidin-1-yl)-7-azaspiro[3.5]nonane-7-carboxylate], the DC50 at KRAS G12V is less than 10 nM; on KRAS G12D (class symbols) it was less than 100 nM; at KRAS it was 1 to 10 nM.

With `CCc1c(F)ccc2cc(O)cc(-c3ncc4c(N5CCC[C@@](C)(O)C5)nc(OC[C@@]56CCCN5[C@H](COC(=O)c5ccc(CN7CCC(c8ccc9c(c8)n(C)c(=O)n9C8CCC(=O)NC8=O)CC7)cc5)CC6)nc4c3F)c12` (stereo partly shown) [Compound 154], the DC50 on KRAS G12V was less than 10 nM; at KRAS G12D (class symbols) it was less than 100 nM; on KRAS, less than 1 nM.

Regarding `C#Cc1c(F)ccc2cc(O)cc(-c3ncc4c(N5CCC[C@@](C)(O)C5)nc(OC[C@@]56CCCN5[C@H](COC(=O)N5CCC7(CCC(CN8CCC(c9ccc%10c(c9)n(C)c(=O)n%10C9CCC(=O)NC9=O)CC8)CC7)CC5)CC6)nc4c3F)c12` (stereo partly drawn) [Compound 321, ((3S,7aS)-7a-(((7-(8-ethynyl-7-fluoro-3-hydroxynaphthalen-1-yl)-8-fluoro-4-((R)-3-hydroxy-3-methylpiperidin-1-yl)pyrido[4,3-d]pyrimidin-2-yl)oxy)methyl)hexahydro-1H-pyrrolizin-3-yl)methyl 9-((4-(1-(2,6-dioxopiperidin-3-yl)-3-methyl-2-oxo-2,3-dihydro-1H-benzo[d]imidazol-5-yl)piperidin-1-yl)methyl)-3-azaspiro[5.5]undecane-3-carboxylate], the DC50 was less than 10 nM at KRAS G12V, less than 100 nM on KRAS G12D (class symbols) and 1 to 10 nM at KRAS.

With `CCc1c(F)ccc2cc(O)cc(-c3ncc4c(N5CCCC(F)(F)C5)nc(OC[C@@]56CCCN5[C@H](COC(=O)N5CCC7(CC5)CC(N5CCC(c8ccc9c(c8)n(C)c(=O)n9C8CCC(=O)NC8=O)CC5)C7)CC6)nc4c3F)c12` (stereo partly drawn) [Compound 470, ((3S,7aS)-7a-(((4-(3,3-difluoropiperidin-1-yl)-7-(8-ethyl-7-fluoro-3-hydroxynaphthalen-1-yl)-8-fluoropyrido[4,3-d]pyrimidin-2-yl)oxy)methyl)hexahydro-1H-pyrrolizin-3-yl)methyl 2-(4-(1-(2,6-dioxopiperidin-3-yl)-3-methyl-2-oxo-2,3-dihydro-1H-benzo[d]imidazol-5-yl)piperidin-1-yl)-7-azaspiro[3.5]nonane-7-carboxylate], the figures for the DC50 at KRAS G12V, at KRAS G12D (class symbols) and on KRAS were less than 10 nM, less than 100 nM and less than 1 nM, respectively.
